Earlier results in patent US20200108015A1, “Sustained Release Nitric Oxide in Intestinal Tract” (SKLAR PHARMA LLC, priority 2018, published 2020).
Like-named read-outs stand apart in the source and are kept apart here.

Row | half life (in vivo) | half life (in the blood stream) | Compound
1 | two | – | NC(=O)NO [Hydroxyurea, hydroxyurea]
2 | – | about 30 minutes | CC(=O)Oc1ccccc1C(=O)O [aspirin]
